Results on one compound are retold here after ChEMBL document CHEMBL5365529, “Construction and Evaluation of Novel Dual-function Antifungal Inhibitors and Covalent Organic Framework Carriers Based on the Infection Microenvironment” (J Med Chem, 2023).

≈ marks a conversion by molar mass, not a printed value. Calls of active or inactive are those of the source. The calls are words filed in the database; no cut-off is given here.

Data set [1] can be described thus: Toxicity in BALB/c mouse infected with Candida albicans 901 assessed as plasma CRE level at 0.5 ug/g administered 6 times measured after 4 days (reference value: 18.48 +/- 2.7 umol/L). To be noted: in vivo, 96 h, dose 0.5 µg/g, time 4 day.
The test system of data set [2] is Candida albicans. In words: Induction of apoptosis in Candida albicans SC5314 assessed as increase in ROS level at 1 uM/ml incubated for 48 hrs by fluorescence microscopy. Type of data set: functional, organism-based.
Data set [3] concerns Candida albicans. As to the kind of experiment: Antifungal activity against Candida albicans 901 infected in BALB/c mouse assessed as inhibition of fungal proliferation at 0.5 ug/g administered 6 times measured after 4 days by GMS staining based analysis. Type of data set: functional, organism-based. To be noted: dose 0.5 µg/g, time 4.0 day.
Data set [4] deals with Candida albicans. As to the kind of experiment: Antifungal activity against Candida albicans 901 infected in BALB/c mouse assessed as decrease in collagen fiber content at 0.5 ug/g administered 6 times measured after 4 days by GMS staining based analysis. The format is functional, organism-based. Particulars: dose 0.5 µg/g, time 4.0 day.
In data set [5] the test system is Candida albicans. In words: Induction of morphological changes in Candida albicans SC5314 assessed as reduction in cytoplasmic density measured for 96 to 144 hrs by TEM analysis. Type of data set: functional, organism-based. Particulars: time 96-144 hrs.
For data set [6], the system named is Candida albicans. In words: Antifungal activity against Candida albicans SC5314 assessed as fungal growth inhibition incubated for 72 hrs by CLSI based susceptibility test. Type of data set: functional.
Data set [7] relates to Candida albicans. In words: Induction of morphological changes in Candida albicans SC5314 assessed as decrease in cell membrane thickness measured after 48 hrs by TEM analysis. Type of data set: functional, organism-based.
For data set [8], the system named is Candida albicans. In words: Antifungal activity against Candida albicans 901 infected in BALB/c mouse assessed as repair of tissue damage at 0.5 ug/g administered 6 times measured after 4 days by GMS staining based analysis. To be noted: dose 0.5 µg/g, time 4.0 day. The format is functional, organism-based.
Data set [9] can be described thus: Toxicity in BALB/c mouse infected with Candida albicans 901 assessed as plasma BUN level at 0.5 ug/g administered 6 times measured after 4 days (reference value: 20.4 +/- 1.5 mmol/L). Particulars: in vivo, 96 h, dose 0.5 µg/g, time 4 day.
Data set [10] deals with T1, Lanosterol 14-alpha demethylase (Candida albicans (strain SC5314 / ATCC MYA-2876) (Yeast), UniProt P10613). As to the kind of experiment: Inhibition of CYP51 in Candida albicans SC5314 assessed as lanosterol level at 4 ug/ml incubated for 16 hrs by GC-MS analysis relative to control. To be noted: at 4 µg/mL. Further details: scale not given: the % may be the effect or the level left.

Data set [11] concerns the target T1, Lanosterol 14-alpha demethylase. In words: Inhibition of CYP51 in Candida albicans SC5314 assessed as ergosterol level at 4 ug/ml incubated for 16 hrs by GC-MS analysis (reference value: 92.07 %). Particulars: at 4 µg/mL. Further details: scale not given: the % may be the effect or the level left.
Data set [12] deals with Candida albicans. As to the kind of experiment: Induction of apoptosis in Candida albicans SC5314 assessed as apoptotic cells incubated for 48 hrs by annexin V-FITC/PI staining based flow cytometry (reference value: 2.12 %). Type of data set: functional. (Flow cytometry measures light scatter and fluorescence of single cells or particles in a stream.)
The nature of data set [13]: Toxicity in BALB/c mouse infected with Candida albicans 901 assessed as pathological change in liver at 0.5 ug/g administered 6 times measured after 4 days by H and E staining based analysis. Type of data set: tissue-based. To be noted: in vivo, 96 h, dose 0.5 µg/g, time 4 day.
Data set [14] addresses T1, Lanosterol 14-alpha demethylase. In words: Inhibition of CYP51 in Candida albicans SC5314 using lanosterol as substrate incubated for 60 mins by HPLC analysis.
Data set [15] deals with Candida albicans. As to the kind of experiment: Induction of immunity in BALB/c mouse infected with Candida albicans 901 assessed as decrease in PD-L1 level at 0.5 ug/g administered 6 times measured after 4 days by Western blot analysis. Type of data set: functional, organism-based. Particulars: dose 0.5 µg/g, time 4.0 day. For orientation: Immunoblotting shows a protein as a band on a membrane.

Data set [16] in a line: Toxicity in BALB/c mouse infected with Candida albicans 901 assessed as pathological change in lung at 0.5 ug/g administered 6 times measured after 4 days by H and E staining based analysis. The format is tissue-based. Particulars: in vivo, 96 h, dose 0.5 µg/g, time 4 day.
Data set [17] has as its system Candida albicans. In words: Induction of morphological changes in Candida albicans SC5314 assessed as edematous vacuoles measured for 96 to 144 hrs by TEM analysis. Type of data set: functional, organism-based. Particulars: time 96-144 hrs.
The nature of data set [18]: Drug uptake in Candida albicans SC5314 assessed as increase in blue fluorescence by hoechst 33256 staining based imaging analysis. Type of data set: ADME.
The test system of data set [19] is Candida albicans. As to the kind of experiment: Induction of morphological changes in Candida albicans SC5314 assessed as change in cell structure measured after 48 hrs by TEM analysis. The format is functional, organism-based.
The test system of data set [20] is Candida albicans. As to the kind of experiment: Induction of morphological changes in Candida albicans SC5314 assessed as disappearance of nuclear domains measured for 96 to 144 hrs by TEM analysis. The format is functional, organism-based. To be noted: time 96-144 hrs.
The test system of data set [21] is Candida albicans. As to the kind of experiment: Induction of immunity in BALB/c mouse infected with Candida albicans 901 assessed as decrease in PD-L1 level at 0.5 ug/g administered 6 times measured after 4 days by IHC analysis. The format is functional, organism-based. To be noted: dose 0.5 µg/g, time 4.0 day.

T1 sequence (P10613 whole entry): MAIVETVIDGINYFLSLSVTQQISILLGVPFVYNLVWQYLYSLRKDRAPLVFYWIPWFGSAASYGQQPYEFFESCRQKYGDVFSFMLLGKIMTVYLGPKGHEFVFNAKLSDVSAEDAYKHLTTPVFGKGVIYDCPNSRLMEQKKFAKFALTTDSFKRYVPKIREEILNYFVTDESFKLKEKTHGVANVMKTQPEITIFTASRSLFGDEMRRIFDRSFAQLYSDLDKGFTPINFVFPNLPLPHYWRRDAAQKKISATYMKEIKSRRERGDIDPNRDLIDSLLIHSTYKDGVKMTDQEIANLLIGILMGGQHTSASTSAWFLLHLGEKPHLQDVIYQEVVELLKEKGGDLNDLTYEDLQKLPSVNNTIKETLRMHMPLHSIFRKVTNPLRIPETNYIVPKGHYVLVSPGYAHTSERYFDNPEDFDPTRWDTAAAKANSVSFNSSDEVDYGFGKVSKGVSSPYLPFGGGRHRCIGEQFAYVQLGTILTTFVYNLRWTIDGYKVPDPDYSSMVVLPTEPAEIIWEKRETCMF

In the case of `COC(=O)[C@@H](Cn1cncn1)NCc1cccc(OCc2cccc(-c3ccccc3)c2C)c1`, the Activity was 10.91 µmol/L in [1]; 24.7 mmol/L in [9]; 10.47% in [10]; 9.72% in data set [11]; 25.91% in the data set with Candida albicans [12]; “Non-Toxic” in data set [13]. Also, in data set [16], the Activity result is recorded as “Non-Toxic”. In addition, the result in the data set with Candida albicans [2], in the data set on Candida albicans [4], with Candida albicans [5], in the data set on Candida albicans [7], in the data set on Candida albicans [8] and in the data set with Candida albicans [15] was Active. Also, the result with Candida albicans [17], in the data set on Candida albicans [19], with Candida albicans [20] and in the data set with Candida albicans [21] was Active. Moreover, in the data set with Candida albicans [3], the inhibition result is “Active”. In addition, the MIC50 (in general, an inhibitory concentration at the 50% level, which refers to growth in some studies and to a panel of isolates in others) in the data set with Candida albicans [6] turned out to be 0.125 µg/mL (≈ 0.274 µM). Besides, the IC50 – broadly, the midpoint of a concentration-inhibition curve – in data set [14] was 170 nM. Further, in [18], the Drug uptake entry is “Active”.
